Assay results as given in PubChem BioAssay AID179 (DTP/NCI, 2004).
The source made the active and inactive calls.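 The calls were made as follows: active = compounds giving half or more protection of infected cells from virus-caused growth loss, again on retest; inactive = the rest.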

System: CEM cells HIV-1 protection, formazan growth assay
Test: NCI AIDS Antiviral Assay
Details: for IC50: measured here: growth of uninfected CEM cells
Summary of the method: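 CEM (human) cells, HIV-1 infected vs uninfected, 5-point dosing, formazan growth read-out. Retest threshold 50% protection.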

## CCN(CC)C1Oc2cc3c(cc2C(c2cc(OC)c(OC)c(OC)c2)C1C)OCO3 (stereo unspecified)
  EC50: > 100 µM
  IC50: 0.537 µM

## CC(C)(C)C(=O)/C=C/c1cccc(C#N)c1
  EC50: > 123 µM
  IC50: 6.61 µM

## COc1cc(C2C(Cl)C(=O)N2NC(=O)c2ccc(NC(C)=O)cc2)cc(OC)c1OC (stereo unspecified)
  EC50: > 200 µM
  IC50: > 200 µM

## C[C@H]1[C@H]2CC[C@H]3[C@@H]4CC(=O)[C@]56C[C@@H]5CC[C@]6(C)[C@H]4CC[C@]23CN1C
  EC50: > 91.2 µM
  IC50: > 91.2 µM

## Cc1cc(C)nc(NS(=O)(=O)c2ccc(Nc3c4ccccc4nc4c(C(=O)N5CCN(CCO)CC5)cccc34)cc2)n1
  EC50: > 36.3 µM
  IC50: > 36.3 µM

## COc1ccc2c(c1)C1Oc3ccccc3CC1(O)CO2 (stereo unspecified)
  EC50: > 200 µM
  IC50: 132 µM

## Oc1ccc(Oc2cc3c(cc2Oc2ccc(O)cc2)-c2nc-3nc3[nH]c(nc4nc(nc5[nH]c(n2)c2cc(Oc6ccc(O)cc6)c(Oc6ccc(O)cc6)cc52)-c2cc(Oc5ccc(O)cc5)c(Oc5ccc(O)cc5)cc2-4)c2cc(Oc4ccc(O)cc4)c(Oc4ccc(O)cc4)cc32)cc1
  EC50: > 50.1 µM
  IC50: 22.9 µM

## O=S(=O)(c1ccccc1)C1CN2OC1(S(=O)(=O)c1ccccc1)CC2c1ccc(Br)cc1 (stereo unspecified)
  outcome: inactive

## Cc1nc2sc(CCl)nn2c(=O)c1Cl
  EC50: > 200 µM
  IC50: 3.98 µM

## COC(=O)CC(=O)C[P+](c1ccccc1)(c1ccccc1)c1ccccc1
  EC50: > 550 µM
  IC50: 42.7 µM

## COC(=S)C12CC3CC(CC(C3)C1)C2
  outcome: inactive

## CC1OC(n2cc(F)c(=O)[nH]c2=O)CCC1O (stereo unspecified)
  EC50: > 1020 µM
  IC50: > 200 µM

## CC(C)(C)CNC(=O)NCn1cc(-c2ccccc2)nn1
  EC50: > 200 µM
  IC50: > 200 µM

## CC(=O)/C=C1/C(=O)C(CC(C)C)=C1CC(C)C
  EC50: 141 µM
  IC50: > 200 µM

## Clc1ccc(OCc2nc3ccccc3[nH]2)cc1
  EC50: > 200 µM
  IC50: 162 µM

## CCOC(OCC)c1ccc(N(C)C)cc1.[C-]#[O+].[C-]#[O+].[C-]#[O+].[Cr]
  EC50: > 20 µM
  IC50: 3.39 µM

## Cn1cc(-c2ccc3c4ccccc4n(C)c3c2)c2ccccc21
  EC50: > 8.71 µM
  IC50: > 8.71 µM

## C[N+](C)(C)CC(=O)N/N=C(/Cc1nc2ccc([N+](=O)[O-])cc2[nH]c1=O)C(=O)Nc1cc(C(F)(F)F)ccc1Cl
  EC50: > 295 µM
  IC50: 120 µM

## Nc1ccc2c(c1)nc1n2C(c2c(F)cccc2F)SC1 (stereo unspecified)
  EC50: > 200 µM
  IC50: 135 µM

## COc1ccc(CN(Cc2ccccc2)c2ncccn2)cc1
  EC50: > 17 µM
  IC50: > 17 µM

## CC(C)(C)OC(=O)NCCC(N)=S
  EC50: > 646 µM
  IC50: 174 µM

## CC(C)OP(=O)(NC(=S)c1ccccc1)OC(C)C
  EC50: > 316 µM
  IC50: 295 µM

## C=C1C(=O)O[C@H]2[C@H](OC(C)=O)[C@@H](C)CCC/C(C)=C/CC[C@@]3(C)O[C@@H]3C[C@@H]12
  EC50: > 126 µM
  IC50: 5.62 µM

## Nc1nc2c(ncn2C2C=CC(O)CC2)c(=O)[nH]1 (stereo unspecified)
  EC50: > 55 µM
  IC50: > 55 µM

## COc1cc2c(c(O)c1OC)c(=O)c1ccccc1n2C
  EC50: > 200 µM
  IC50: 66.1 µM

## [Cu+2].[O-]/N=C/c1ccc[oH+]1.[O-]/N=C/c1ccc[oH+]1
  EC50: > 200 µM
  IC50: 11.7 µM

## Cc1cccc(-c2nnc3s/c(=C\c4ccc(N(C)C)cc4)c(=O)n23)c1
  EC50: > 30.9 µM
  IC50: > 30.9 µM

## N#C[C@@H](c1nc2ccccc2s1)c1ncccc1[N+](=O)[O-]
  EC50: > 200 µM
  IC50: 20 µM

## COc1ccc(-c2cc(-c3ccco3)c(C#N)c(=S)n2C2OC(COC(C)=O)C(OC(C)=O)C(OC(C)=O)C2OC(C)=O)cc1 (stereo unspecified)
  EC50: 123 µM
  IC50: 145 µM

## C=C1C(=O)OC2C=C(CCC(C)=O)C(C)C(OC(C)=O)CC12 (stereo unspecified)
  outcome: inactive

## CO[C@@](c1ccccc1)(c1nc(C#N)c(N)o1)C(F)(F)F
  EC50: 79.4 µM
  IC50: 115 µM

## Cc1cc2c(cc1C)[n+](=O)c(C(=O)CC(=O)C(=O)Nc1c(C(C)C)cccc1C(C)C)c(C)n2[O-]
  EC50: > 7.94 µM
  IC50: > 7.94 µM

## N#CC(C#N)=CN1CCNC1=S
  EC50: > 200 µM
  IC50: > 200 µM

## Cc1cc(S(=O)(=O)n2ccnc2Oc2cccc(Cl)c2)c(SSc2cc(Cl)c(C)cc2S(=O)(=O)n2ccnc2Oc2cccc(Cl)c2)cc1Cl
  EC50: 8.13 µM
  IC50: 13.8 µM

## COc1c(NC(C)=O)cc(C)cc1NC(C)=O
  outcome: inactive

## OCC(Cn1cncn1)(c1ccc(F)cc1F)n1cncn1 (stereo unspecified)
  EC50: > 200 µM
  IC50: > 200 µM

## CCCC[C@H]1C(=O)O[C@H](C)[C@H](NC(=O)c2cccc(NC=O)c2O)C(=O)O[C@@H](C)[C@@H]1OC(=O)CC(C)C
  EC50: > 1 µM
  IC50: 0.0389 µM

## CN1CCC(O)(OC(=O)C(c2ccccc2)C2(O)CCCC2)CC1 (stereo unspecified)
  EC50: > 200 µM
  IC50: > 200 µM

## COc1cc(CCCl)c(CC2=NCCc3cc(OC)c(OC)cc32)cc1OC
  EC50: > 200 µM
  IC50: 31.6 µM

## C=CCOC(=O)/C(=C\c1ccc(OC)c(OC)c1)c1ccc(OC)c(OC)c1
  EC50: > 200 µM
  IC50: > 200 µM

## NC(CSS(=O)(=O)c1ccccc1)C(=O)O (stereo unspecified)
  EC50: > 200 µM
  IC50: > 200 µM

## CC1=C(C(=O)NNC(=O)c2ccccc2)CC(C(=O)NNC(=O)c2ccccc2)=C(C)N1
  EC50: > 200 µM
  IC50: > 200 µM

## Cc1nc(N)nc(N)c1N1CCN(c2ccc(N)cc2)CC1
  EC50: > 200 µM
  IC50: 2.82 µM

## CC1(C)N=[N+]([O-])C1(C)C
  EC50: > 200 µM
  IC50: > 200 µM

## CC(C)CCCC(C)[C@H]1CCC2C3CC[C@H]4C[C@@H](CCCP(=O)(c5ccccc5)c5ccccc5)CC[C@]4(C)C3CC[C@@]21C (stereo partly specified)
  EC50: > 50.1 µM
  IC50: > 50.1 µM

## O=C(Nc1ccc([N+](=O)[O-])cc1[N+](=O)[O-])C(=O)C(C(=O)c1ccc2ccccc2c1)C1OC(=O)c2ccccc21 (stereo unspecified)
  EC50: > 66.1 µM
  IC50: 19.5 µM

## Cc1c2c(n(CCc3ccc(Cl)cc3)c1C)NN=C(C#N)S2(=O)=O
  EC50: > 200 µM
  IC50: 85.1 µM

## CC1N=C(SCc2c(F)cccc2Cl)N2C(C)N=C(SCc3c(F)cccc3Cl)N12 (stereo unspecified)
  EC50: > 20.4 µM
  IC50: > 20.4 µM

## CCOP(=O)(OCC)/C(C#N)=C/c1cnc(C)[nH]1
  EC50: > 200 µM
  IC50: > 200 µM

## CC(C)OC(=O)c1ccc(NCc2cc(O)ccc2O)cc1Cl
  EC50: > 200 µM
  IC50: 3.63 µM

## Nc1nc(N)c(CCCCc2ccc([N+](=O)[O-])cc2)c(N)n1
  outcome: inactive

## O=C1CCCC(=O)N1CCc1c[nH]c2ccccc12
  outcome: inactive

## O=C(c1cccs1)N(C(=S)OCc1ccccn1)c1ccccc1
  EC50: > 200 µM
  IC50: 79.4 µM

## COc1ccc(/C=C/C(=O)c2ccc3c(c2)OCO3)cc1OC
  EC50: > 43.7 µM
  IC50: 20.9 µM

## CCCCn1[nH]c(=O)ccc1=O
  EC50: > 1480 µM
  IC50: 1410 µM

## COc1cc(/C=C2\CC/C(=C\c3cc(OC)c(O)c(OC)c3)C2=O)cc(OC)c1O
  EC50: > 200 µM
  IC50: 1.02 µM

## Cc1cc(C)c(/C=C(\C(=C/c2c(C)cc(C)cc2C)[N+](=O)[O-])[N+](=O)[O-])c(C)c1
  EC50: > 100 µM
  IC50: > 100 µM

## S=c1[nH]nc(Cc2ccccc2)c(=S)[nH]1
  outcome: inactive

## CC(=O)c1ccc2c(ccc(=O)n2C)c1
  EC50: > 468 µM
  IC50: 107 µM

## N#Cc1c(-c2ccccc2)c(-c2ccccc2)nn(CC(=O)O)c1=O
  EC50: > 759 µM
  IC50: 47.9 µM

## O=C(O)COc1ccc(C(=O)/C(SS/C(C(=O)c2ccc(OCC(=O)O)c(Cl)c2Cl)=C2\C=C(c3ccc(F)cc3)SS2)=C2/C=C(c3ccc(F)cc3)SS2)c(Cl)c1Cl
  EC50: > 37.2 µM
  IC50: > 37.2 µM

## COC1/C=C/OC2(C)Oc3c(C)c(O)c4c(O)c(cc(OCC(=O)N5CC(C)(C)C5)c4c3C2=O)NC(=O)/C(C)=C/C=CC(C)C(O)C(C)C(O)C(C)C(OC(C)=O)C1C (stereo unspecified)
  EC50: > 200 µM
  IC50: 26.9 µM

## O=C1c2ccccc2C(=O)N1C/C(Cl)=C/Cl
  EC50: > 200 µM
  IC50: > 200 µM

## CS(=O)(=O)Nc1nc2ccccc2c(=O)o1
  EC50: > 200 µM
  IC50: > 200 µM

## O=C(O)[C@@H](NS(=O)(=O)c1ccc2ccccc2c1)c1ccccc1
  outcome: inactive

## OCC(O)COc1c(Cl)ccc(Cl)c1Cl (stereo unspecified)
  EC50: 87.1 µM
  IC50: 275 µM

## COC(=O)c1cc(Cc2cc(C)c(OC)c(C(=O)OC)c2)cc(C)c1OC
  EC50: > 200 µM
  IC50: 14.5 µM

## CC/C(Cl)=N\OC(=O)Nc1ccc(F)c(Cl)c1
  outcome: inactive

## O=c1c2ccccc2n2c(-c3ccccc3O)nnc2n1-c1ccccc1
  EC50: > 200 µM
  IC50: > 200 µM

## Cc1ccc(C2(O)CC(c3ccc([N+](=O)[O-])o3)=NN2C(=O)COc2ccccc2Cl)cc1 (stereo unspecified)
  EC50: > 1.66 µM
  IC50: > 1.66 µM

## CCOC(=O)c1c(N)n(-c2ccccc2)c(=S)n(-c2ccccc2)c1=O
  EC50: > 178 µM
  IC50: > 178 µM

## CC1(C)C=C(S(=O)(=O)c2ccccc2)Oc2ccccc2O1
  EC50: > 200 µM
  IC50: 132 µM

## Cc1cc(=O)oc2cc(O/C(=C\c3ccc(O)cc3)c3nc4ccccc4c(=O)o3)ccc12
  EC50: > 22.9 µM
  IC50: > 22.9 µM

## COC(CNC(=O)C(C)NC(=O)CCc1ccccc1)OC (stereo unspecified)
  outcome: inactive

## CC1=CCC[C@H]2[C@](C)(CC3=CC(=O)C(Sc4ccccc4)=CC3=O)[C@@H](C)CC[C@]12C
  EC50: > 200 µM
  IC50: 1.32 µM

## COC(=O)C(=O)C(C(=O)C(=O)Nc1cccc(C(C)=O)c1)c1nc2ccc([N+](=O)[O-])cc2[nH]c1=O (stereo unspecified)
  EC50: > 64.6 µM
  IC50: > 64.6 µM

## CC(=O)N1N=C(c2ccccc2Nc2ccccc2C2=NN(C(C)=O)C(c3ccccc3)O2)OC1c1ccccc1 (stereo unspecified)
  EC50: > 200 µM
  IC50: 6.17 µM

## COc1ccc2nc(/N=C/N(C)C)sc2c1
  EC50: > 200 µM
  IC50: > 200 µM

## O=C1CCCCc2cccc(O)c21
  EC50: > 200 µM
  IC50: > 200 µM

## CCCCCOCC(O)CO (stereo unspecified)
  outcome: inactive

## C=CCCCCCCCCC/C=C1\C[C@H](O)COC1=O
  EC50: > 93.3 µM
  IC50: > 93.3 µM

## COC(=O)CCCc1ccc2c(c1)CCC2
  EC50: > 200 µM
  IC50: > 200 µM

## O=C(C[n+]1ccccc1Br)c1ccc2ccccc2c1
  EC50: > 200 µM
  IC50: 9.55 µM

## CCC/C(Cl)=N/OC(=O)Nc1ccccc1C(F)(F)F
  EC50: > 20 µM
  IC50: 3.39 µM

## CC(=O)NNC(=S)N/C=C(/C(=O)c1ccccc1)c1ccccc1
  EC50: > 479 µM
  IC50: 302 µM

## CNC(=O)NCNC(=O)NC
  EC50: > 562 µM
  IC50: > 562 µM
